The test deals with T1, human GIRK1/4 channels (Homo sapiens, UniProt P48544+P48549).
T1 construct: Full-length human GIRK1 cDNA was cloned from HuH cell- and HeLa cell-derived cDNA libraries; Full-length GIRK4 cDNA was amplified from a human heart cDNA library; expressed in transfected cells; host or cells: FLP-IN-CHO cells (Invitrogen)
T1 sequence (P48549 1-501): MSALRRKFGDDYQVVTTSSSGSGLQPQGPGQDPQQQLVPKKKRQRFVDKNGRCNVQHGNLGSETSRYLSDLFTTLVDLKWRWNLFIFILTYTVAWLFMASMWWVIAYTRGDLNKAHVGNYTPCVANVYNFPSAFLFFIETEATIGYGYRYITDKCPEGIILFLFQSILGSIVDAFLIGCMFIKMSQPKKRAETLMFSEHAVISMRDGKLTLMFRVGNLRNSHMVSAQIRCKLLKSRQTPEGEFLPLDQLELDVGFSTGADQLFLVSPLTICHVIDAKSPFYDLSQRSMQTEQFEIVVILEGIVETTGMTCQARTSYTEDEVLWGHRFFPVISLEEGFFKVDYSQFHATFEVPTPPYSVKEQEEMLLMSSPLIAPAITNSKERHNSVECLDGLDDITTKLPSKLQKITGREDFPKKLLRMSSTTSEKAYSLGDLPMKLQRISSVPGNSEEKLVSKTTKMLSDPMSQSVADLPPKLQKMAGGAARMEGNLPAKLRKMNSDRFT
T1 sequence (P48544 1-419): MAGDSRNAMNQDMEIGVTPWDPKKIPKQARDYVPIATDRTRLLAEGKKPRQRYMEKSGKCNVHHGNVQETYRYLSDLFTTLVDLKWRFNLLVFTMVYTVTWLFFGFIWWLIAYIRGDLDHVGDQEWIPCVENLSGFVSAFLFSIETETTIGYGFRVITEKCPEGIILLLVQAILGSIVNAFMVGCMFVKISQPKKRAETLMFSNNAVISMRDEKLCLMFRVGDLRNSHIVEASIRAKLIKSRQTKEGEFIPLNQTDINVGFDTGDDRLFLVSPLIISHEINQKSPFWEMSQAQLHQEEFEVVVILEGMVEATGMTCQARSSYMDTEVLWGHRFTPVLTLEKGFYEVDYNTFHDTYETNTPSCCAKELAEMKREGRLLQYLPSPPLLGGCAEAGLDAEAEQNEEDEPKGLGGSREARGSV
Briefly: Measurement of human GIRK1/4 channel current by whole-cell patch clamp method (human GIRK1/4-expressing CHO cell line). It counts as cell-based. Conditions: whole-cell patch clamp, human GIRK1/4-expressing CHO cells; step end current at −120 mV; test compound 0.1, 1, 10 μM; read-out: GIRK¼ IC50. The method, then: (2) Production of CHO Cell Line Expressing Human GIRK1/4
CHO cell lines stably expressing human GIRK1/4 channels were prepared in the following manner.
Full-length human GIRK1 cDNA was cloned from HuH cell- and HeLa cell-derived cDNA libraries. Full-length GIRK4 cDNA was amplified from a human heart cDNA library (produced by Clontech Laboratories, Inc.) by PCR using synthetic primers shown in Table 1, and cloned into the Eco-RI restriction enzyme site of pCR-Blunt (produced by Invitrogen Corporation) or into the HincII site of pUC118 (produced by Takara Bio, Inc.).
The obtained human GIRK1 and GIRK4 cDNA sequences correspond to known sequences (NCBI database: GIRK1 (NM_002239) and GIRK4 (NM_000890) respectively). The obtained GIRK1 and GIRK4 cDNA sequences were cloned into the Eco-RI restriction enzyme site of pCR-Blunt (available from Invitrogen Corporation) or into the HincII site of pUC118 (available from Takara Bio, Inc.). A GIRK4 expression vector was constructed by insertion into the BamHI-XhoI site of pcDNA5/FRT. A GIRK1 expression vector was constructed by insertion into the KpnI-XhoI site of pcDNA3.1(+) or pCAG_neo. FLP-IN-CHO cells (produced by Invitrogen Corporation) were transfected with human GIRK1 and GIRK4 expression vectors by using Lipofectamine 2000 (produced by Invitrogen Corporation) according to the protocol enclosed with the reagent or using an electronic induction method (“Nucleofector Kit-T”, produced by Amaxa). First, the cells transfected with the GIRK4 expression vector were cultured in a 10% serum-containing F12 medium (produced by Sigma) supplemented with 600 μg/ml of hygromycin in an incubator with 5% carbon dioxide at 37° C. Then the cells expressing GIRK4 were transfected with the GIRK1 expression vector and were cultured in 10% serum-containing F12 medium supplemented with 350 μg/ml of G418 and 600 μg/ml of hygromycin in an incubator with 5% carbon dioxide at 37° C. to select GIRK1/4 expressing cell lines. Cell populations whose growth was observed after about 2 weeks were isolated using cloning rings, and the obtained single colonies were proliferated. RNA was extracted from single colonies, and single-stranded cDNA was synthesized by a cDNA synthesis kit (produced by Invitrogen Corporation), and the amount of expression was quantified at the mRNA level by real-time PCR (Applied Biosystems, Ltd.). Finally, the expressed current was analyzed by patch clamp method described below. The cell lines expressing a current of 500 pA or more per cell were selected as channel-expressing cell lines for activity measurement by patch clamping method.
(4) Measurement of Ion Channel Current by Patch Clamp Method (Human GIRK1/4-Expressing CHO-K1 Cell Line)
An experiment was carried out using a patch clamp setup at room temperature (20 to 26° C.). A perfusion chamber having a diameter of 20 mm (flow rate: about 5 ml/min) was mounted on the stage of a phase-contrast inverted microscope (produced by Nikon Corporation) placed on a vibration isolation table. A poly-L-lysine (produced by Sigma)-coated coverslip (diameter: 15 mm, produced by Matsunami Glass Ind., Ltd.) on which human GIRK1/4-expressing cells were cultured was placed in the perfusion chamber.
Hyperpolarizing stimulation pulses were applied and ionic current was recorded using a patch clamp amplifier (EPC-7 or EPC-7 PLUS, manufactured by HEKA) and a personal computer (manufactured by IBM Corp.) in which software for data acquisition and analysis of ion channel current (PULSE 8.77, manufactured by HEKA) was installed. The current was measured in the whole-cell configuration of the patch-clamp technique. The tip (resistance: 2 to 4 MΩ) of a borosilicate glass pipette (produced by Sutter Instrument Co.) was gently placed on the cell membrane by using a three-dimensional mechanical micromanipulator (produced by Shoshin EM Corporation). […] Subsequently, stronger suction was applied to break the cell membrane. […]

pIC50: −log10 of the molar value. Where a name gives a salt, the structure may show the parent alone.

As usually defined, the pIC50 is the negative decadic logarithm of the IC50, by convention in mol/L. As for `CCN1C(=O)C(C)(C)C(=O)N(C)c2cc(OCCCN(CCc3cccnc3)Cc3ccccc3-c3cccnc3)ccc21` [Example 242], the negative logarithm of the IC50 (pIC50) is 6.66.

With `CCN1C(=O)C(C)(C)C(=O)N(C)c2cc(OCCCN(CCn3ccc4ccoc4c3=O)Cc3ccc(C(F)(F)F)cc3)ccc21` [Example 395], the negative-log IC50 (pIC50) was 6.48.

As to `CN1C(=O)C(C)(C)C(=O)N(C)c2cc(OCCCN(CCc3cccnc3)Cc3ccnc4ccccc34)ccc21` [Example 51, 1,3,3,5-tetramethyl-7-{3-[(2-pyridin-3-ylethyl)-(quinolin-4-ylmethyl)amino]propoxy}-1,5-dihydrobenzo[b][1,4]diazepine-2,4-dione trihydrochloride], the negative logarithm of the IC50 (pIC50) is 5.82.

For the compound `CCN1C(=O)C(C)(C)C(=O)N(C)c2cc(OCCCN(CCn3ccc4ccoc4c3=O)Cc3ccc(C#N)cc3)ccc21` [Example 380], the pIC50 was 6.31.

On to `CCN1C(=O)C(C)(C)C(=O)N(CC)c2cc(OCCCN(CCc3cccnc3)Cc3ccncc3)ccc21` [Example 14, 1,5-diethyl-3,3-dimethyl-7-{3-[(2-pyridin-3-ylethyl)pyridin-4-ylmethylamino]propoxy}-1,5-dihydrobenzo[b][1,4]diazepine-2,4-dione trihydrochloride], for which the pIC50 is 6.14.

Take `CCN1C(=O)C(C)(C)C(=O)N(C)c2cc(OCCCN(CCc3cccnc3)Cc3ccncc3C)ccc21` [Example 54, 1-ethyl-3,3,5-trimethyl-7-{3-[(3-methylpyridin-4-ylmethyl)-(2-pyridin-3-ylethyl)amino]propoxy}-1,5-dihydrobenzo[b][1,4]diazepine-2,4-dione trihydrochloride]: the negative logarithm of the IC50 (pIC50) is 6.01.

Turning to `CCN1C(=O)C(C)(C)C(=O)N(C)c2cc(OCCCN(CCn3ccc4ccccc4c3=O)Cc3ccc(C#N)cc3)ccc21` [Example 85], the negative logarithm of the IC50 (pIC50) was 6.82.

Regarding `CCN1C(=O)C(C)(C)C(=O)N(C)c2cc(OCCCN(CCc3cccnc3)Cc3cccc(C#N)c3)ccc21` [Example 229], the negative-log IC50 (pIC50) was 6.16.

In the case of `CCN1C(=O)C(C)(C)C(=O)N(C)c2cc(OCCCN(CCc3cccnc3)Cc3ccccc3)ccc21` [Example 200], the negative-log IC50 (pIC50) was 6.23.

In the case of `CCN1C(=O)C(C)(C)C(=O)N(C)c2cc(OCCCN(CCn3ccc4occc4c3=O)Cc3ccc(C)nc3C)ccc21` [Example 629, 7-(3-{(2,6-dimethylpyridin-3-ylmethyl)-[2-(4-oxo-4H-furo[3,2-c]pyridin-5-yl)ethyl]amino}propoxy)-1-ethyl-3,3,5-trimethyl-1,5-dihydrobenzo[b][1,4]diazepine-2,4-dione dihydrochloride], the negative logarithm of the IC50 (pIC50) is 6.77.

As to `CCN1C(=O)C(C)(C)C(=O)N(C)c2cc(OCCCN(CCn3ccc4sccc4c3=O)Cc3cccnc3C)ccc21` [Example 595, 1-ethyl-3,3,5-trimethyl-7-(3-{(2-methylpyridin-3-ylmethyl)-[2-(4-oxo-4H-thieno[3,2-c]pyridin-5-yl)ethyl]-amino}propoxy)-1,5-dihydrobenzo[b][1,4]diazepine-2,4-dione], the negative logarithm of the IC50 (pIC50) is 6.10.

As for `CCN1C(=O)C(C)(C)C(=O)N(C)c2cc(OCCCN(CCc3cccnc3)Cc3ccncc3)ccc21` [Example 8, 1-ethyl-3,3,5-trimethyl-7-{3-[(2-pyridin-3-ylethyl)pyridin-4-ylmethylamino]propoxy}-1,5-dihydrobenzo[b][1,4]diazepine-2,4-dione trihydrochloride], the pIC50 was 6.03.

`CCN1C(=O)C(C)(C)C(=O)N(C)c2cc(OCCCN(CCn3ccc4ccccc4c3=O)S(=O)(=O)c3ccccc3)ccc21` [Example 634, N-[3-(1-ethyl-3,3,5-trimethyl-2,4-dioxo-2,3,4,5-tetrahydro-1H-benzo[b][1,4]diazepin-7-yloxy)propyl]-N-[2-(1-oxo-1H-isoquinolin-2-yl)ethyl]benzenesulfonamide]: the pIC50 is 6.31.

With `CCN1C(=O)C(C)(C)C(=O)N(C)c2cc(OCCCN(CCn3ccc4oc(C)cc4c3=O)Cc3cnccc3C)ccc21` [Example 573, 1-ethyl-3,3,5-trimethyl-7-{3-[[2-(2-methyl-4-oxo-4H-furo[3,2-c]pyridin-5-yl)ethyl]-(4-methylpyridin-3-ylmethyl)amino]propoxy}-1,5-dihydrobenzo[b][1,4]diazepine-2,4-dione], the pIC50 is 5.82.

On to `CN(CCN(CCCOc1ccc2c(c1)N(C)C(=O)C(C)(C)C(=O)N2C)Cc1ccncc1)C(=O)c1ccccc1` [Example 45, N-methyl-N-(2-{pyridin-4-ylmethyl-[3-(1,3,3,5-tetramethyl-2,4-dioxo-2,3,4,5-tetrahydro-1H-benzo[b][1,4]diazepin-7-yloxy)propyl]amino}ethyl)benzamide dihydrochloride], for which the pIC50 is 5.67.

For the compound `CN1C(=O)C(C)(C)C(=O)N(C)c2cc(OCCCN(CCc3cccnc3)Cc3ccncc3)ccc21` [Example 19, 1,3,3,5-tetramethyl-7-{3-[(2-pyridin-3-ylethyl)pyridin-4-ylmethylamino]propoxy}-1,5-dihydrobenzo[b][1,4]diazepine-2,4-dione trihydrochloride], the pIC50 was 5.85.

Take `Cc1ccccc1CN(CCCOc1ccc2c(c1)N(C)C(=O)C(C)(C)C(=O)N2C)CCc1cccnc1` [Example 50, 1,3,3,5-tetramethyl-7-{3-[(2-methylbenzyl)-(2-pyridin-3-ylethyl)amino]propoxy}-1,5-dihydrobenzo[b][1,4]diazepine-2,4-dione dihydrochloride]: the pIC50 is 6.34.
